Measured values taken from ChEMBL document CHEMBL2074228, “Cloning and functional characterization of a potential-sensitive, polyspecific organic cation transporter (OCT3) most abundantly expressed in placenta” (J Biol Chem, 1998).
Values joined by “and” are separate entries in the source; they are usually repeats but may differ in a detail not shown here. Equal entries are not always repeated.

Assays:
[1] = target: T1, OCT3 (Solute carrier family 22 member 3) (Rattus norvegicus, UniProt O88446); test: in vitro; conditions: human, OCT3-expressing HeLa cells, probe guanidine (35 uM)
T1 sequence (O88446 whole entry): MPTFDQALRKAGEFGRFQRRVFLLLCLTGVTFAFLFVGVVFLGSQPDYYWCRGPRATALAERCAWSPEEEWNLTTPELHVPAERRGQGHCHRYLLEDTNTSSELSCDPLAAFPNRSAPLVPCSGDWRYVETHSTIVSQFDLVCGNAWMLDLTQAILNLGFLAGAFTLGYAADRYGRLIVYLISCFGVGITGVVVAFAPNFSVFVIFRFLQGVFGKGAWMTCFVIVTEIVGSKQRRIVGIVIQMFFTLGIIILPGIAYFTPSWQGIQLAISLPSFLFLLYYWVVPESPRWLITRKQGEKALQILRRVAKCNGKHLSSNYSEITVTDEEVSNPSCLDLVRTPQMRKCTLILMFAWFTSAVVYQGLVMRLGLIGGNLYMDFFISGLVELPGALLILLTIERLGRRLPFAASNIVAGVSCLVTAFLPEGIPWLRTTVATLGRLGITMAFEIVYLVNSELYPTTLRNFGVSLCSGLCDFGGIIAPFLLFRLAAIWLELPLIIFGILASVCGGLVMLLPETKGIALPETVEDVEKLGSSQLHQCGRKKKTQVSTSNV
Description: TP_TRANSPORTER: inhibition of Guanidine uptake (Guanidine: 35 uM, TEA: 5000 uM) in OCT3-expressing HeLa cells

[2] = target: T1, OCT3 (Solute carrier family 22 member 3); test: TP_TRANSPORTER: inhibition of Guanidine uptake (Guanidine: 35 uM, NMN: 5000 uM) in OCT3-expressing HeLa cells; format: functional, cell-based; design: scale not given: the % may be the effect or the level left; conditions: human, probe guanidine (35 uM), read-out: Activity
[3] = target: T1, OCT3 (Solute carrier family 22 member 3); test: TP_TRANSPORTER: inhibition of Guanidine uptake (Guanidine: 35 uM, MPTP: 5000 uM) in OCT3-expressing HeLa cells; format: functional, cell-based; design: scale not given: the % may be the effect or the level left; conditions: human, probe guanidine (35 uM), read-out: Activity
[4] = target: T1, OCT3 (Solute carrier family 22 member 3); test: in vitro; conditions: human, OCT3-expressing HeLa cells, probe guanidine (35 uM); remark: listed apart in the source
[5] = target: T1, OCT3 (Solute carrier family 22 member 3); test: TP_TRANSPORTER: inhibition of Guanidine uptake (Guanidine: 35 uM, TMA: 5000 uM) in OCT3-expressing HeLa cells; format: functional, cell-based; design: scale not given: the % may be the effect or the level left; conditions: human, probe guanidine (35 uM), read-out: Activity
[6] = target: T1, OCT3 (Solute carrier family 22 member 3); test: TP_TRANSPORTER: inhibition of Guanidine uptake (Guanidine: 35 uM, Serotonin: 5000 uM) in OCT3-expressing HeLa cells; format: functional, cell-based; design: scale not given: the % may be the effect or the level left; conditions: human, probe guanidine (35 uM), read-out: Activity
[7] = target: T1, OCT3 (Solute carrier family 22 member 3); test: TP_TRANSPORTER: inhibition of Guanidine uptake (Guanidine: 35 uM, MPP+: 5000 uM) in OCT3-expressing HeLa cells; format: functional, cell-based; design: scale not given: the % may be the effect or the level left; conditions: human, probe guanidine (35 uM), read-out: Activity
[8] = target: T2, Solute carrier family 22 member 3 (Rattus norvegicus, UniProt O88446); test: TP_TRANSPORTER: uptake in OCT3-expressing HeLa cells; format: functional, cell-based; conditions: human
T2 sequence (O88446 whole entry): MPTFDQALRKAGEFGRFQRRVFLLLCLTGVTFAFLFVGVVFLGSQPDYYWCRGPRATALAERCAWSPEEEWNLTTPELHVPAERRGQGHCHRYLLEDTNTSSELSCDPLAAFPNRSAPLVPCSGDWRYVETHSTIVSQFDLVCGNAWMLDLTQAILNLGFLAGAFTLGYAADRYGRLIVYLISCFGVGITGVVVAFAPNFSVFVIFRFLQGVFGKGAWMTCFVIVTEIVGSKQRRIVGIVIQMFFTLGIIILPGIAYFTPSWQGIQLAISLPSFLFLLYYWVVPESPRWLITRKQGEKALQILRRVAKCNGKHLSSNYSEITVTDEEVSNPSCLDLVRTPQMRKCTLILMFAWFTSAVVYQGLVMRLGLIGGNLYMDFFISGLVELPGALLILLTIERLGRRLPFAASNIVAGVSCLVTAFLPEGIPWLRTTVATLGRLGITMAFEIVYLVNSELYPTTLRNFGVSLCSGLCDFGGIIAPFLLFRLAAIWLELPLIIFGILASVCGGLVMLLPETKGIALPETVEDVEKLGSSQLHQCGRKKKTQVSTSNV

[9] = target: T2, Solute carrier family 22 member 3; test: TP_TRANSPORTER: uptake in Xenopus laevis oocytes; format: functional, cell-based; conditions: oocyte
[10] = target: T1, OCT3 (Solute carrier family 22 member 3); test: TP_TRANSPORTER: inhibition of Guanidine uptake (Guanidine: 35 uM, Desipramine: 5000 uM) in OCT3-expressing HeLa cells; format: functional, cell-based; design: scale not given: the % may be the effect or the level left; conditions: human, probe guanidine (35 uM), read-out: Activity
[11] = substrate: CC[N+](CC)(CC)CC; test: cells, lysate or membranes named

For CC[N+](CC)(CC)CC [TETRYLAMMONIUM], which activity at 5000 µM [1] is on record?
Its activity at 5000 µM is 41%.

Which activity at 5000 µM [2] does the source give for CNC(=O)c1cccnc1 [NICOTINYL METHYLAMIDE] here?
The activity at 5000 µM was 33%.

For CN1CC=C(c2ccccc2)CC1, which activity at 5000 µM [3] is on record?
The activity at 5000 µM was 14%.

Which activity at 5000 µM [4] does the source give for CN1CCC[C@H]1c1cccnc1 [NICOTINE] here?
The activity at 5000 µM was 52%.

C[N+](C)(C)C [TETRAMETHYLAMMONIUM] was tested. Which activity at 5000 µM [5] did it give?
Its activity at 5000 µM is 59%.

How did the activity at 5000 µM [6] turn out when NCCc1c[nH]c2ccc(O)cc12 [SEROTONIN] was run?
Its activity at 5000 µM is 30%.

C[n+]1ccc(-c2ccccc2)cc1 was tested. Which activity at 5000 µM [7] did it give?
The activity at 5000 µM was 22%.

With N=C(N)N [GUANIDINE] as the molecule, how does the Activity [8] read?
Its Activity is “substrate [+]”.

And the Activity [9]?
The Activity was “substrate [+]”.

CNCCCN1c2ccccc2CCc2ccccc21 [DESIPRAMINE] was tested. Which activity at 5000 µM [10] did it give?
Its activity at 5000 µM is 1%.

B1: Solute carrier family 22 member 3 (Rattus norvegicus) (protein)
chain: MPTFDQALRKAGEFGRFQRRVFLLLCLTGVTFAFLFVGVVFLGSQPDYYWCRGPRATALAERCAWSPEEEWNLTTPELHVPAERRGQGHCHRYLLEDTNTSSELSCDPLAAFPNRSAPLVPCSGDWRYVETHSTIVSQFDLVCGNAWMLDLTQAILNLGFLAGAFTLGYAADRYGRLIVYLISCFGVGITGVVVAFAPNFSVFVIFRFLQGVFGKGAWMTCFVIVTEIVGSKQRRIVGIVIQMFFTLGIIILPGIAYFTPSWQGIQLAISLPSFLFLLYYWVVPESPRWLITRKQGEKALQILRRVAKCNGKHLSSNYSEITVTDEEVSNPSCLDLVRTPQMRKCTLILMFAWFTSAVVYQGLVMRLGLIGGNLYMDFFISGLVELPGALLILLTIERLGRRLPFAASNIVAGVSCLVTAFLPEGIPWLRTTVATLGRLGITMAFEIVYLVNSELYPTTLRNFGVSLCSGLCDFGGIIAPFLLFRLAAIWLELPLIIFGILASVCGGLVMLLPETKGIALPETVEDVEKLGSSQLHQCGRKKKTQVSTSNV
How did the Km [11] turn out when B1 was run?
Its Km is 2.5 mM and 6.2 mM.
